Results taken from patent publication EP0283349A1, “Process for obtaining tannic principles of vegetable origin, cosmetologic and pharmaceutical composition containing the tannic principle obtained by the process” (Lamaison, Jean-Louis, priority 1987, dated 1988).

target: élastase pancréatique porcine (Sus scrofa, UniProt P00772); experiment: Elastase inhibition (method of SHINOGI et al., substrate Boc-Ala-ONp); assay type: biochemical; conditions: mass of inhibitor giving 50 % inhibition after 30 minutes; referred to the dry plant drug for plant extracts, real mass for defined principles
Experimental: Les dosages d'activités inhibitrices de l'élastase, de la trypsine et de l'α-chymotrypsine ont été réalisés selon la méthode de SHINOGI et al. (1), la quantité d'inhibiteur étant adaptée de manière à obtenir une inhibition voisine de 50 % (I50) après 30 minutes, les extraits étant généralement préparés à partir de 0,5 g de poudre (250) de plante sèche dans 20 ml d'éthanol à 50 % V/V, les principes définis en solution à 1 mg/ml d'éthanol à 50 % V/V.

Sequence of élastase pancréatique porcine (P00772 27-266): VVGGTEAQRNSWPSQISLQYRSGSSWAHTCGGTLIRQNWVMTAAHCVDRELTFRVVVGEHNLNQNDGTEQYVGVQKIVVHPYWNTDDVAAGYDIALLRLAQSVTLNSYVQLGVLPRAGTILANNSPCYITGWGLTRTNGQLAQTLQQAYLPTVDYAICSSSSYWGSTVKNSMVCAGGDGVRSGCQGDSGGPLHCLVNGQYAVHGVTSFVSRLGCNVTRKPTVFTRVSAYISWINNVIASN

| Molecule | I 50 Elas-tase |
| --- | --- |
| Catéchine-épicatéchine | 35 µg |
| O=c1c(O[C@@H]2O[C@H](CO)[C@H](O)[C@H](O)[C@H]2O)c(-c2ccc(O)c(O)c2)oc2cc(O)cc(O)c12 [Hypéroside] | 275 µg |
| Hamamélitanin | 600 µg |
| O=c1c(O)c(-c2ccc(O[C@@H]3O[C@H](CO)[C@@H](O)[C@H](O)[C@H]3O)c(O)c2)oc2cc(O)cc(O)c12 [Quercétine 4'-Glucoside] | 250 µg |
| O=C(O)c1cc(O)c(O)c(O)c1 [Acide gallique] | 100 µg |
| C[C@@H]1O[C@@H](OC[C@H]2O[C@@H](Oc3c(-c4ccc(O)c(O)c4)oc4cc(O)cc(O)c4c3=O)[C@H](O)[C@@H](O)[C@@H]2O)[C@H](O)[C@H](O)[C@H]1O [Rutoside] | 150 µg |
| Acide tannique | 50 µg |
| O=c1c(O)c(-c2ccc(O)cc2O)oc2cc(O)cc(O)c12 [Morine] | 60 µg |
| Ethoxazo-rutine | 250 µg |
